Reference: ChEMBL document CHEMBL3885881, “DrugMatrix”

Species: Rattus norvegicus
Assay: DrugMatrix - Regimen: Daily Repeat
Type: toxicity, organism-based, Sprague-Dawley
Design: regimen Daily Repeat, gender Male, age 6-8 weeks
Settings: in vivo, po, route oral GAVAGE, vehicle .5 % CMC; for ABSOLUTE BASOPHIL / ABSOLUTE EOSINOPHIL / ABSOLUTE LYMPHOCYTE / ABSOLUTE MONOCYTE / ABSOLUTE SEGMENTED NEUTROPHIL / BASOPHIL / EOSINOPHIL / ERYTHROCYTE COUNT / HEMATOCRIT / HEMOGLOBIN / LEUKOCYTE COUNT / LYMPHOCYTE / MEAN CORPUSCULAR HEMOGLOBIN / MEAN CORPUSCULAR HEMOGLOBIN CONCENTRATION / MEAN CORPUSCULAR VOLUME / MONOCYTE / NEUTROPHIL / NUCLEATED RED BLOOD CELLS / PLATELET COUNT: tissue Blood; for ALANINE AMINOTRANSFERASE / ALBUMIN / ALKALINE PHOSPHATASE / ASPARTATE AMINOTRANSFERASE / BLOOD UREA NITROGEN / CARBON DIOXIDE / CHLORIDE / CHOLESTEROL / CREATINE PHOSPHOKINASE / CREATININE / GLUCOSE / LACTATE DEHYDROGENASE / LIPASE / PHOSPHORUS / POTASSIUM / SODIUM / TOTAL BILIRUBIN / TOTAL PROTEIN / URIC ACID: tissue Plasma
[1] = 0 mg/kg, 72 h, dose level Control, time 3 day
[2] = 0 mg/kg, 120 h, dose level Control, time 5 day
[3] = 17 mg/kg, 72 h, dose level Low, time 3 day

Question: Which results are given for CN1CCN(CCCN2c3ccccc3Sc3ccc(Cl)cc32)CC1 [PROCHLORPERAZINE]?
Answer: ABSOLUTE BASOPHIL [1]: 0 CELLS/uL; ABSOLUTE EOSINOPHIL [1]: 0 CELLS/uL; ABSOLUTE LYMPHOCYTE [1]: 10913.67 CELLS/uL; ABSOLUTE MONOCYTE [1]: 85.33 CELLS/uL; ABSOLUTE SEGMENTED NEUTROPHIL [1]: 1401 CELLS/uL; BASOPHIL [1]: 0%; EOSINOPHIL [1]: 0%; ERYTHROCYTE COUNT [1]: 5.57 x10E6/uL; HEMATOCRIT [1]: 35.58%; HEMOGLOBIN [1]: 13.8 G/DL; LEUKOCYTE COUNT [1]: 12.4 x10E3/uL; LYMPHOCYTE [1]: 88%; MEAN CORPUSCULAR HEMOGLOBIN [1]: 24.78 pg; MEAN CORPUSCULAR HEMOGLOBIN CONCENTRATION [1]: 38.82 G/DL; MEAN CORPUSCULAR VOLUME [1]: 63.88 fL; MONOCYTE [1]: 0.67%; NEUTROPHIL [1]: 11.33%; NUCLEATED RED BLOOD CELLS [1]: 0 /100WBC; PLATELET COUNT [1]: 1162.33 x10E3/uL; ALANINE AMINOTRANSFERASE [1]: 53 u/L; ALBUMIN [1]: 4.17 G/DL; ALKALINE PHOSPHATASE [1]: 374.5 u/L; ASPARTATE AMINOTRANSFERASE [1]: 89.5 u/L; BLOOD UREA NITROGEN [1]: 16.33 mg/dL; CARBON DIOXIDE [1]: 29.17 mmol/L; CHLORIDE [1]: 97.67 MEQ/L; CHOLESTEROL [1]: 77 mg/dL; CREATINE PHOSPHOKINASE [1]: 464.83 u/L; CREATININE [1]: 0.14 mg/dL; GLUCOSE [1]: 164 mg/dL; LACTATE DEHYDROGENASE [1]: 155.5 u/L; LIPASE [1]: 9.17 u/L; PHOSPHORUS [1]: 12.4 mg/dL; POTASSIUM [1]: 6.91 MEQ/L; SODIUM [1]: 141.47 MEQ/L; TOTAL BILIRUBIN [1]: 0.2 mg/dL; TOTAL PROTEIN [1]: 5.95 G/DL; URIC ACID [1]: 1.72 mg/dL; ABSOLUTE BASOPHIL [2]: 0 CELLS/uL; ABSOLUTE EOSINOPHIL [2]: 20.5 CELLS/uL; ABSOLUTE LYMPHOCYTE [2]: 13871.67 CELLS/uL; ABSOLUTE MONOCYTE [2]: 60.5 CELLS/uL; ABSOLUTE SEGMENTED NEUTROPHIL [2]: 980.67 CELLS/uL; BASOPHIL [2]: 0%; EOSINOPHIL [2]: 0.17%; ERYTHROCYTE COUNT [2]: 5.65 x10E6/uL; HEMATOCRIT [2]: 35.63%; HEMOGLOBIN [2]: 14.08 G/DL; LEUKOCYTE COUNT [2]: 14.93 x10E3/uL; LYMPHOCYTE [2]: 92.83%; MEAN CORPUSCULAR HEMOGLOBIN [2]: 24.97 pg; MEAN CORPUSCULAR HEMOGLOBIN CONCENTRATION [2]: 39.55 G/DL; MEAN CORPUSCULAR VOLUME [2]: 63.13 fL; MONOCYTE [2]: 0.33%; NEUTROPHIL [2]: 6.67%; NUCLEATED RED BLOOD CELLS [2]: 0 /100WBC; PLATELET COUNT [2]: 1248.17 x10E3/uL; ALANINE AMINOTRANSFERASE [2]: 45.17 u/L; ALBUMIN [2]: 4.27 G/DL; ALKALINE PHOSPHATASE [2]: 405.67 u/L; ASPARTATE AMINOTRANSFERASE [2]: 74.17 u/L; BLOOD UREA NITROGEN [2]: 15.5 mg/dL; CARBON DIOXIDE [2]: 30.17 mmol/L; CHLORIDE [2]: 100.67 MEQ/L; CHOLESTEROL [2]: 57 mg/dL; CREATINE PHOSPHOKINASE [2]: 239.5 u/L; CREATININE [2]: 0.17 mg/dL; GLUCOSE [2]: 165.67 mg/dL; LACTATE DEHYDROGENASE [2]: 90.5 u/L; LIPASE [2]: 8.83 u/L; PHOSPHORUS [2]: 12.32 mg/dL; POTASSIUM [2]: 7.03 MEQ/L; SODIUM [2]: 142.65 MEQ/L; TOTAL BILIRUBIN [2]: 0.18 mg/dL; TOTAL PROTEIN [2]: 6.03 G/DL; URIC ACID [2]: 1.98 mg/dL; ABSOLUTE BASOPHIL [3]: 0 CELLS/uL; ABSOLUTE EOSINOPHIL [3]: 0 CELLS/uL; ABSOLUTE LYMPHOCYTE [3]: 10730.67 CELLS/uL; ABSOLUTE MONOCYTE [3]: 90 CELLS/uL; ABSOLUTE SEGMENTED NEUTROPHIL [3]: 1446 CELLS/uL; BASOPHIL [3]: 0%; EOSINOPHIL [3]: 0%; ERYTHROCYTE COUNT [3]: 5.49 x10E6/uL; HEMATOCRIT [3]: 34.9%; HEMOGLOBIN [3]: 13.83 G/DL; LEUKOCYTE COUNT [3]: 12.27 x10E3/uL; LYMPHOCYTE [3]: 87.67%; MEAN CORPUSCULAR HEMOGLOBIN [3]: 25.3 pg; MEAN CORPUSCULAR HEMOGLOBIN CONCENTRATION [3]: 39.67 G/DL; MEAN CORPUSCULAR VOLUME [3]: 63.77 fL; MONOCYTE [3]: 0.67%; NEUTROPHIL [3]: 11.67%; NUCLEATED RED BLOOD CELLS [3]: 0.33 /100WBC; PLATELET COUNT [3]: 1239 x10E3/uL; ALANINE AMINOTRANSFERASE [3]: 45 u/L; ALBUMIN [3]: 4.17 G/DL; ALKALINE PHOSPHATASE [3]: 413.67 u/L; ASPARTATE AMINOTRANSFERASE [3]: 85.33 u/L; BLOOD UREA NITROGEN [3]: 15.33 mg/dL; CARBON DIOXIDE [3]: 26 mmol/L; CHLORIDE [3]: 99.33 MEQ/L; CHOLESTEROL [3]: 67.67 mg/dL; CREATINE PHOSPHOKINASE [3]: 343 u/L; CREATININE [3]: 0.13 mg/dL; GLUCOSE [3]: 151 mg/dL; LACTATE DEHYDROGENASE [3]: 394.67 u/L; LIPASE [3]: 9.67 u/L; PHOSPHORUS [3]: 14.23 mg/dL; POTASSIUM [3]: 6.98 MEQ/L; SODIUM [3]: 143.17 MEQ/L; TOTAL BILIRUBIN [3]: 0.2 mg/dL; TOTAL PROTEIN [3]: 5.9 G/DL; URIC ACID [3]: 1.5 mg/dL
